Reference: patent US20090209633A1, “Treatment of Pain With Resiniferatoxin and Related Analogs” (priority 2006, published 2009)

Assays:
[1] = molecular target: T1, native TRPV1 (Rattus norvegicus, UniProt O35433); test: Whole-cell currents in cultured embryonic DRG neurons (patch clamp); assay type: cell-based; conditions: for activation phase of whole-cell current: −60 mV; for reversibility of induced current: RTX 10 and 100 nM, washout >15 min
T1 construct: RTX-induced membrane currents on native TRPV1 in embryonic DRG neurons grown in culture; endogenous in cells; host or cells: primary rat E18 DRG neurons
T1 sequence (O35433 whole entry): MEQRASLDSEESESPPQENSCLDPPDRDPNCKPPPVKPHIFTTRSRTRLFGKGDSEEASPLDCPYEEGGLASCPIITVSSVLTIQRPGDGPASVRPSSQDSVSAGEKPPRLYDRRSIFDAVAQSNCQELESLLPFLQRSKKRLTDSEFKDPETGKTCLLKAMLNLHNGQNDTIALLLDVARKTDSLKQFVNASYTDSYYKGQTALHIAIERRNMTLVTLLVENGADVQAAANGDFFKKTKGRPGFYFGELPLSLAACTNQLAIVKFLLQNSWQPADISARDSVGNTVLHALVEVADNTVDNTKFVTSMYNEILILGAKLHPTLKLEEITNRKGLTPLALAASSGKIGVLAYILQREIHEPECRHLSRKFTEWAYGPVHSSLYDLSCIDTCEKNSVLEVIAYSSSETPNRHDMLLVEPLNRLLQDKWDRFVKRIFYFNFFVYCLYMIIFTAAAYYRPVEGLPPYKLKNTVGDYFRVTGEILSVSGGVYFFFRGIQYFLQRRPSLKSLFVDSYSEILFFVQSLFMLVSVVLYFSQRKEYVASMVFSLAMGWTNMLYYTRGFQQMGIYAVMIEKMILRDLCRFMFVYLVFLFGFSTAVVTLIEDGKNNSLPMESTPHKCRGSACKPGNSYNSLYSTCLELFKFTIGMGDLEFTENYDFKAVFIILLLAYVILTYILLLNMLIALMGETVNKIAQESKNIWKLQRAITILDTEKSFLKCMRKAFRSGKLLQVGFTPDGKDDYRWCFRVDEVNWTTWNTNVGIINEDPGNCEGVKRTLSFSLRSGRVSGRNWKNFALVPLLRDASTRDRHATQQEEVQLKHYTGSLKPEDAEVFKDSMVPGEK
Method: (§1) Electrophysiology. Whole-cell and single-channel currents were recorded from rat DRG neurons in culture and from Xenopus laevis oocytes injected with rat TRPV1 cRNA. Animals were cared for according to the standards of the National Institutes of Health (NIH). All animal use protocols were approved by Southern Illinois University School of Medicine Animal Care Committee.
(§2) Primary DRG neuronal cultures were prepared from embryonic day 18 (E18) rat embryos. Adult pregnant rats were killed with an overdose of isoflurane. DRG were dissected and the cells were dissociated by triturating with a fire-polished glass pipette. Cells were cultured in Neurobasal medium (Life Technologies, Buffalo, N.Y., USA), supplemented with 10% fetal bovine serum (FBS), and grown on poly-D-lysine-coated glass coverslips. Cells were used from 5 to 15 days after plating. Small diameter (<30 μm) rounded neurons were selected for patch-clamp experiments. […] The Giga-seal patch-clamp technique was used to record whole-cell currents. For perforated-patch recordings, the bath solution contained (mM): sodium gluconate 140, KCl 2.5, Hepes 10, MgCl2 1 and ethylene glycol bis(2-aminoethyl ether)-N,N,N′N′-tetraacetic acid (EGTA) 1.5 (pH adjusted to 7.35 with NaOH), and the pipette solution contained (mM): sodium gluconate 130, NaCl 10, KCl 2.5, Hepes 10, MgCl2 1, EGTA 1.5 and 240 μg/ml^−1 amphotericin B (pH adjusted to 7.35 with NaOH). For current-clamp experiments the pipette solution contained (mM): potassium gluconate 130, NaCl 10, MgCl2 1, EGTA 0.2, K2ATP 1 and Hepes 10; pH adjusted to 7.35 with NaOH. Extracellular solution for current- and voltage-clamp experiments contained (mM): NaCl 140, KCl 4, MgCl2 1 and Hepes 10; pH adjusted to 7.35 with NaOH. Currents were recorded using a WPC 100 patch-clamp amplifier (E.S.F. Electronic, Goettingan, Germany). Data were filtered at 10 kHz, digitized (VR-10B, Instrutech Corp., Great Neck, N.Y., USA) and stored on videotapes or directly stored in the computer using a LabView interface. For analysis of whole-cell currents, data were filtered at 1 kHz (−3 db frequency with an 8-pole low-pass Bessel filter, Warner Instruments, LPF-8) and digitized at 2 kHz.
This example tests the activation of whole-cell current in DRG neurons by RTX. We determined the properties of RTX-induced membrane currents on native TRPV1 in embryonic DRG neurons grown in culture. […] Protons were not used to elicit currents because of the presence of acid-sensitive ion channels in these neurons.

[2] = system: DRG neurons; test: Membrane depolarization and action potentials in DRG neurons (current clamp); assay type: cell-based, rat
Method: as §2
To attribute a physiological significance to the slow and irreversible action of RTX, we recorded membrane depolarization in current-clamp conditions. Action potentials in response to a current injection (10-100 pA) were recorded in order to confirm that the neurons were excitable (inset to FIGS. 9A and B). The average membrane potential was −57.1±1 mV (n=42).

[3] = molecular target: T2, rat TRPV1 (Rattus norvegicus, UniProt O35433); test: Whole-cell currents in Xenopus laevis oocytes expressing TRPV1 (double-electrode voltage clamp); assay type: cell-based; conditions: capsaicin 300 nM; for activation time (10-90% of the rising phase): holding −60 mV, protons pH 5.5, RTX 10 nM; for reversal potential of agonist-induced whole-cell current: ramp −80 to +80 mV in 1 s; for reversal/deactivation of current on agonist removal: −60 mV, pH 5.5, NADA 10 μM, washout >15 min for RTX
T2 construct: expressed in transfected cells; host or cells: Xenopus laevis oocytes injected with TRPV1 cRNA
T2 sequence (O35433 whole entry): as above
Method: Rat TRPV1 dcRNA. Cloned rat TRPV1 was obtained from the Julius Lab at the University of California San Francisco. TRPV1 cRNA was obtained using standard techniques known to those of skill in the art.
as §1
Oocytes were obtained by an abdominal incision after anaesthetizing the frog by immersion in a 0.05% solution of 3-aminobenzoic acid ethyl ester (MS222). Animals were killed by a subcutaneous injection of a 2% solution of MS222 according to NIH guidelines. One day after separating the oocytes from the follicular layer, 50-70 nl TRPV1 cRNA was injected using a Drummond Nanoject (Drummond Scientific Co., Broomall, Pa., USA). Oocytes were used for recording from 3 days after the injection. Double-electrode voltage clamp was performed using a Warner amplifier (Warner Instruments, Hamden, Conn., USA). Data were digitized and stored on videotape or directly stored on the computer using a LabView interface (National Instruments, Austin, Tex., USA). Experiments were performed at 21-23° C. Oocytes were placed in a Perspex chamber superfused (5-10 ml min^−1) with Ca^2+-free Ringer solution containing (mM): NaCl 100, KCl 2.5 and Hepes 5; pH adjusted to 7.35 with NaOH. Current-voltage relationships were measured using 1-s voltage ramps from −80 to +80 mV.
This example tests the activation of whole-cell currents in oocytes by RTX. Whole-cell currents were recorded from oocytes heterologously expressing TRPV1. […] Agonist-induced currents are shown after subtracting the leak current in the absence of the agonist. […] In order to quantify this, we calculated the ratio of outward and inward currents. […] PKC activation increases sensitivity as well as TRPV1 translocation. […] (Szallasi et al. 1990b; Caterina et al. 1997; Marshall et al. 2003.)

C=C(C)[C@]12C[C@@H](C)[C@@]34O[C@](Cc5ccccc5)(O[C@@H]1[C@@H]3C=C(COC(=O)Cc1ccc(O)c(OC)c1)C[C@]1(O)C(=O)C(C)=C[C@@H]41)O2 [RTX, resiniferatoxin]
activation phase of whole-cell current ([1]; RTX 10 nM): 69 ± 10.9 s
activation phase of whole-cell current ([1]; RTX 100 nM): 29.35 ± 2.65 s
reversibility of induced current ([1]; capsaicin 1 μM): could not be reversed readily
membrane depolarization ([2]; RTX 3 pM): 10.6±1.6 mV
number of action potentials ([2]; RTX 3 pM): 16.6±8.3
number of action potentials ([2]; RTX 10 pM): 24.6±6.9
membrane depolarization ([2]; RTX 10 nM): 32.2±5.1 mV
number of action potentials ([2]; RTX 10 nM): 24.5±8.6
membrane depolarization ([2]; RTX 1 μM): 52±2 mV
number of action potentials ([2]; RTX 1 μM): 14.6±4.6
membrane depolarization ([2]; RTX 10 μM (so in the source)): 14.1±1.5 mV
membrane depolarization ([2]; RTX 100 μM (so in the source)): 16.3±3 mV
number of action potentials ([2]; RTX ˜100 pM): 77.8±11.8
activation time (10-90% of the rising phase) [3]: 61.4±4.4 s
reversal potential of agonist-induced whole-cell current ([3]; RTX 10 nM): −10.4±0.53 mV
ratio of outward and inward currents (rectification) ([3]; ramp −80 to +80 mV, RTX 10 nM): 2.35±0.97
reversal/deactivation of current on agonist removal ([3]; RTX 10 nM): did not deactivate even after a prolonged washout

COc1cc(CNC(=O)CCCC/C=C/C(C)C)ccc1O [capsaicin]
reversibility of induced current ([1]; capsaicin 1 μM): readily reversible
activation phase of whole-cell current ([1]; capsaicin 1 μM): 7.14 ± 0.42 s
neurons responding to capsaicin ([1]; small diameter cultured DRG neurons): More than 70%
membrane depolarization ([2]; capsaicin 30 nM): 13.3±3.5 mV
number of action potentials ([2]; capsaicin 30 nM): 54.2±10.5
activation time (10-90% of the rising phase) [3]: 23.9±1.5 s
reversal potential of agonist-induced whole-cell current ([3]; RTX 10 nM): −12.3±0.42 mV
reversal/deactivation of current on agonist removal ([3]; RTX 10 nM): could be reversed readily
